Tested on: rumen microbiota
Assay: Gas Production Test, in vitro rumen fermentation model (Example 1)
Type: cell-based
Conditions: for lag period of cumulative gas production: buffered rumen fluid, 39° C.; for part still unused by the rumen microbes after 24 hours: based on the cumulative gas production profiles; for cumulative gas production after 72 hours (comparison): isonitrogenous, 72 hours in vitro incubation, against blank and other NPN sources
Description: The in vitro model used to simulate rumen digestion and utilization of the products is the Gas Production Test protocol, adapted for protein digestibility, as described in more detail in the following paragraph.
Approximately 1 liter of rumen fluid was collected from two different rumen-fistulated animals in the morning. Rumen fluid was strained through a cheesecloth, kept at 39° C. under CO2 and then diluted 1:19 with a nitrogen-free buffer and mineral solution containing 10.03 g NaHCO3, 1.43 g Na2HPO4, 1.55 g KH2PO4, 0.15 g MgSO4·7H2O, 0.52 g Na2S, 0.017 g CaCl2·2H2O, 0.015 g MnCl2·4H2O, 0.002 g […], 0.012 g FeCl3·6H2O and 0.125 mg resazurin per liter.
To ensure the rumen fluid was depleted of free nitrogen and to ensure nitrogen would be the limiting factor for the microbial growth at the start of the experiment, the buffered rumen fluid was pre-incubated for 4 hours at 39° C. with a carbohydrate overload of glucose, xylose and soluble starch, each at 3.33 g/l. During this pre-incubation, all nitrogen available in the rumen fluid would be incorporated into bacterial protein and other bacterial nitrogen-containing components.
Each product was weighed into different glass bottles on an isonitrogenous base, providing 15 mg N per flask. Then, 60 ml of the pre-incubated buffered rumen fluid was added, under continuous flushing with CO2. Flasks were closed with rubber stoppers and placed in a shaking water bath with 50 movements per minute at 39° C. to start the incubation period. The gas production of each flask was recorded continuously for 72 hours using a fully automated system. All test products including a blank (i.e. no product added to the flask of rumen fluid) were tested in one run in triplicate.
The cumulative gas production was measured continuously for 72 hours.

[1] = 15 mg N per flask, 72 hours incubation

NC(=O)NC(N)=O [Biuret]
time after which gas production stopped / maximum cumulative gas production (end level) was reached [1]: 40 h
lag period of cumulative gas production [1]: approximately 5 hours
part still unused by the rumen microbes after 24 hours: approximately 60%

NC(=O)NC(=O)NC(N)=O [Triuret]
time after which gas production stopped / maximum cumulative gas production (end level) was reached [1]: 60 h
time of highest (peak) gas production [1]: 20 h
lag period of cumulative gas production [1]: 9 h
gas production rate from 20 to 50 hours (20 to 50 hours of incubation): approximately 4 ml/hour
part still unused by the rumen microbes after 24 hours: approximately 60%

Nc1nc(=O)[nH]c(=O)[nH]1 [ammelide, Ammelide]
cumulative gas production after 72 hours (comparison): not significantly different

O=c1[nH]c(=O)[nH]c(=O)[nH]1 [cyanuric acid, Cyanuric acid]
cumulative gas production after 72 hours (comparison): not significantly different
